We go through ten compounds from ChEMBL document CHEMBL5226378, “Transformation of Renieramycin M into Renieramycins T and S by Intramolecular Photoredox Reaction of 7-Methoxy-6-methyl-1,2,3,4-tetrahydroisoquinoline-5,8-dione Derivatives” (J Nat Prod, 2023).

By pIC50 is commonly meant the negative decadic logarithm of the IC50, by convention in mol/L.

pIC50: −log10 of the molar value.

One assay has as its system DU-145. Put plainly: Cytotoxicity against human DU-145 cells assessed as inhibition of cell growth incubated for 4 days by CCK-8 assay. The format is functional, cell-based. The settings on record: DU-145, 96 h. On the technique in general: Tetrazolium assays rely on reduction of a dye to a coloured formazan, in cell work by metabolically active cells.
For another assay, the system named is HCT-116. The assay can be described thus: Cytotoxicity against human HCT-116 cells assessed as inhibition of cell growth incubated for 4 days by CCK-8 assay. The assay is classed as functional, cell-based. The settings on record: HCT-116, 96 h.

In the case of `C/C=C(/C)C(=O)OC[C@H]1c2c(c(OC(C)=O)c(C)c3c2OCO3)C[C@H]2[C@H]3C4=C(C[C@@H]([C@H](C#N)N12)N3C)C(=O)C(C)=C(OC)C4=O`, the pIC50 in the assay with DU-145 and in the assay with HCT-116 was 7.49 each time.

In the case of `C/C=C(/C)C(=O)OC[C@H]1c2c(c(O)c(C)c3c2OCO3)C[C@H]2[C@H]3C4=C(C[C@@H]([C@H](C#N)N12)N3C)C(=O)C(C)=C(OC)C4=O`, the negative logarithm of the IC50 (pIC50) is 7.30 with DU-145 and 7.09 in the assay with HCT-116.

`COC1=C(C)C(=O)C2=C(C1=O)[C@@H]1[C@@H]3Cc4c(OC(C)=O)c(C)c5c(c4[C@H](CNC(=O)C(C)=O)N3[C@@H](C#N)[C@H](C2)N1C)OCO5`: the negative logarithm of the IC50 (pIC50) in the assay on DU-145 was 8.22; in the assay on HCT-116, 7.57.

Regarding `COC1=C(C)C(=O)C2=C(C1=O)[C@@H]1[C@@H]3CC4=C(C(=O)C(O)=C(C)C4=O)[C@H](CNC(=O)C(C)=O)N3[C@@H](C#N)[C@H](C2)N1C`, the pIC50 was 6.17 in the assay with DU-145 and 5.92 with HCT-116.

Turning to `C/C=C(/C)C(=O)OC[C@H]1c2c(c(O)c(C)c3c2OCO3)C[C@H]2CN(C)C[C@H](C#N)N21`, the negative-log IC50 (pIC50) in the assay on DU-145 and in the assay on HCT-116 was < 4.70 in each case.

For the compound `COC1=C(C)C(=O)C2=C(C1=O)[C@@H]1[C@@H]3Cc4c(O)c(C)c5c(c4[C@H](CNC(=O)C(C)=O)N3[C@@H](C#N)[C@H](C2)N1C)OCO5`, the negative logarithm of the IC50 (pIC50) with DU-145 is 6.85; with HCT-116, 6.64.

On to `C/C=C(/C)C(=O)OC[C@H]1C2=C(C[C@H]3CN(C)C[C@H](C#N)N31)C(=O)C(C)=C(OC)C2=O`, for which the values for the pIC50 in the assay with DU-145 and in the assay on HCT-116 were 5.14 and 5.66, respectively.

In the case of `C/C=C(/C)C(=O)OC[C@H]1C2=C(C[C@H]3[C@H]4C5=C(C[C@@H]([C@H](C#N)N13)N4C)C(=O)C(C)=C(OC)C5=O)C(=O)C(C)=C(OC)C2=O` [RENIERAMYCIN M], the negative logarithm of the IC50 (pIC50) in the assay with DU-145 is 8.40; in the assay with HCT-116 it was 7.74.

Take `C/C=C(/C)C(=O)OC[C@H]1C2=C(C[C@H]3[C@H]4C5=C(C[C@@H]([C@H](C#N)N13)N4C)C(=O)C(C)=C(OC)C5=O)C(=O)C(C)=C(O)C2=O` [RENIERAMYCIN S]: the negative logarithm of the IC50 (pIC50) in the assay on DU-145 is 7.14; in the assay on HCT-116, 6.80.

With `COC1=C(C)C(=O)C2=C(C1=O)[C@@H]1[C@@H]3CC4=C(C(=O)C(OC)=C(C)C4=O)[C@H](CNC(=O)C(C)=O)N3[C@@H](C#N)[C@H](C2)N1C` [SAFRAMYCIN A], the values for the pIC50 with DU-145 and in the assay with HCT-116 were 8.10 and 7.70, respectively.
